Results published in US6156700A, “3-(1,2-Benzisothiazol- and isoxazol-5-yl)-2,4(1H,3H)-pyrimidinedione or thione and 3-(1,2-benzisothiazol- and isoxazol-5-yl)-4(3H)-pyrimidinone or thione herbicidal agents” (American Cyanmid Company, priority 1998, dated 2000).
Values joined by “and” are separate entries in the source; they are usually repeats but may differ in a detail not shown here. Equal entries are not always repeated.

How the values were obtained:
Assay in all cases: Postemergence herbicidal evaluation
ABUTH = format: in vivo
AMBEL = format: in vivo
CASOB = format: in vivo
CHEAL = format: in vivo
GALAP = format: in vivo
IPOHE = format: in vivo
IPOSS = format: in vivo
ECHCG = format: in vivo
SETVI = format: in vivo
GLXMAW = format: in vivo
GLXMA = format: in vivo
ORYSAT = format: in vivo, Oryza sativa
TRZAWR = format: in vivo
ZEAMX = format: in vivo

SMILES: O=C1C2=C(CCCC2)C(=O)N1c1ccc2snc(-c3ccccc3)c2c1 [A]
- herbicidal effect rating (ABUTH; 0.1250 kg/ha): 9.0
- herbicidal effect rating (ABUTH; 0.2500 kg/ha): 9.0
- herbicidal effect rating (ABUTH; 0.5000 kg/ha): 9.0
- herbicidal effect rating (AMBEL; 0.0157-0.0160 kg/ha): 7.0 and 6.0
- herbicidal effect rating (AMBEL; 0.0313-0.0320 kg/ha): 9.0 and 5.6
- herbicidal effect rating (AMBEL; 0.0625-0.0640 kg/ha): 6.9
- herbicidal effect rating (AMBEL; 0.1250 kg/ha): 7.0
- herbicidal effect rating (AMBEL; 0.2500 kg/ha): 9.0
- herbicidal effect rating (AMBEL; 0.5000 kg/ha): 9.0
- herbicidal effect rating (CASOB; 0.0625-0.0640 kg/ha): 7.9
- herbicidal effect rating (CASOB; 0.1250 kg/ha): 8.9
- herbicidal effect rating (CASOB; 0.2500 kg/ha): 9.0
- herbicidal effect rating (CASOB; 0.5000 kg/ha): 9.0
- herbicidal effect rating (CHEAL; 0.0157-0.0160 kg/ha): 9.0 and 5.8
- herbicidal effect rating (CHEAL; 0.0313-0.0320 kg/ha): 9.0 and 6.3
- herbicidal effect rating (CHEAL; 0.0625-0.0640 kg/ha): 7.1
- herbicidal effect rating (CHEAL; 0.1250 kg/ha): 7.9
- herbicidal effect rating (CHEAL; 0.2500 kg/ha): 9.0
- herbicidal effect rating (CHEAL; 0.5000 kg/ha): 9.0
- herbicidal effect rating (GALAP; 0.0157-0.0160 kg/ha): 5.5 and 3.8
- herbicidal effect rating (GALAP; 0.0625-0.0640 kg/ha): 5.4
- herbicidal effect rating (GALAP; 0.1250 kg/ha): 6.4
- herbicidal effect rating (GALAP; 0.2500 kg/ha): 8.3
- herbicidal effect rating (GALAP; 0.5000 kg/ha): 9.0
- herbicidal effect rating (IPOHE; 0.0157-0.0160 kg/ha): 5.0
- herbicidal effect rating (IPOHE; 0.0313-0.0320 kg/ha): 5.7
- herbicidal effect rating (IPOHE; 0.0625-0.0640 kg/ha): 6.0
- herbicidal effect rating (IPOHE; 0.1250 kg/ha): 7.5
- herbicidal effect rating (IPOSS; 0.0157-0.0160 kg/ha): 5.5 and 5.0
- herbicidal effect rating (IPOSS; 0.0313-0.0320 kg/ha): 9.0 and 6.8
- herbicidal effect rating (IPOSS; 0.0625-0.0640 kg/ha): 7.5
- herbicidal effect rating (IPOSS; 0.1250 kg/ha): 8.4
- herbicidal effect rating (IPOSS; 0.2500 kg/ha): 9.0
- herbicidal effect rating (IPOSS; 0.5000 kg/ha): 9.0
- herbicidal effect rating (ECHCG; 0.0157-0.0160 kg/ha): 1.0 and 0.5
- herbicidal effect rating (ECHCG; 0.0313-0.0320 kg/ha): 1.0 and 0.6
- herbicidal effect rating (ECHCG; 0.0625-0.0640 kg/ha): 1.0
- herbicidal effect rating (ECHCG; 0.1250 kg/ha): 1.8
- herbicidal effect rating (ECHCG; 0.2500 kg/ha): 2.7
- herbicidal effect rating (ECHCG; 0.5000 kg/ha): 2.0
- herbicidal effect rating (SETVI; 0.0157-0.0160 kg/ha): 1.0 and 1.2
- herbicidal effect rating (SETVI; 0.0313-0.0320 kg/ha): 1.0 and 1.6
- herbicidal effect rating (SETVI; 0.0625-0.0640 kg/ha): 2.1
- herbicidal effect rating (SETVI; 0.1250 kg/ha): 3.0
- herbicidal effect rating (SETVI; 0.2500 kg/ha): 2.7
- herbicidal effect rating (SETVI; 0.5000 kg/ha): 2.0
- herbicidal effect rating (GLXMAW; 0.0157-0.0160 kg/ha): 4.0
- herbicidal effect rating (GLXMAW; 0.0313-0.0320 kg/ha): 4.0
- herbicidal effect rating (GLXMAW; 0.0625-0.0640 kg/ha): 4.6
- herbicidal effect rating (GLXMAW; 0.1250 kg/ha): 4.6
- herbicidal effect rating (GLXMAW; 0.2500 kg/ha): 4.6
- herbicidal effect rating (GLXMAW; 0.5000 kg/ha): 4.5
- herbicidal effect rating (GLXMA; 0.0157-0.0160 kg/ha): 3.5
- herbicidal effect rating (GLXMA; 0.0313-0.0320 kg/ha): 4.3
- herbicidal effect rating (ORYSAT; 0.0157-0.0160 kg/ha): 2.0
- herbicidal effect rating (ORYSAT; 0.0313-0.0320 kg/ha): 2.3 and 2.1
- herbicidal effect rating (ORYSAT; 0.0625-0.0640 kg/ha): 2.6
- herbicidal effect rating (ORYSAT; 0.1250 kg/ha): 2.9
- herbicidal effect rating (ORYSAT; 0.2500 kg/ha): 3.6
- herbicidal effect rating (ORYSAT; 0.5000 kg/ha): 4.5
- herbicidal effect rating (TRZAWR; 0.0157-0.0160 kg/ha): 2
- herbicidal effect rating (TRZAWR; 0.0313-0.0320 kg/ha): 3.8
- herbicidal effect rating (TRZAWR; 0.0625-0.0640 kg/ha): 4.0
- herbicidal effect rating (TRZAWR; 0.1250 kg/ha): 4.3
- herbicidal effect rating (ZEAMX; 0.0313-0.0320 kg/ha): 4.0 and 3.4
- herbicidal effect rating (ZEAMX; 0.0625-0.0640 kg/ha): 3.7
- herbicidal effect rating (ZEAMX; 0.1250 kg/ha): 4.2
- herbicidal effect rating (ZEAMX; 0.2500 kg/ha): 3.8
- herbicidal effect rating (ZEAMX; 0.5000 kg/ha): 4.0
